{"source": "patent US7314888B1", "about": "“Compounds and medicinal use thereof” (Toyama Chemical Co., Ltd., priority 1998, dated 2008)", "key": {"[1]": {"biological_target": "T1, AP-1 complex (Fos/Jun peptide) (Homo sapiens, UniProt P01100+P05412)", "T1 construct": "made in house; host or cells: chemical peptide synthesis (no expression host)", "T1 sequence (P01100 137-200 limits assumed)": "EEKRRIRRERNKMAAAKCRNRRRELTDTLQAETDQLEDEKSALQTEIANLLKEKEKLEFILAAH", "T1 sequence (P05412 252-315 limits assumed)": "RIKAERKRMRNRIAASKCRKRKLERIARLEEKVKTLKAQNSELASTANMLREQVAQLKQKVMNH", "experiment": "Activities on AP-1 binding reaction to recognition sequence (ELISA) using Fos/Jun peptide", "details": "read-out: Inhibition rate %", "description": "Activities on AP-1 Binding Reaction to Recognition Sequence (ELISA)\nOn the other hand, Jun peptide and N-terminal biotinylated tetraglycine Fos peptide containing a DNA-binding site [Nature, Vol. 373, Pages 257-261, 1995] were synthesized and separately dissolved in tris buffer (20 mM tris-hydrochloride (pH 7.5), 50 mM potassium chloride, 1 mM ethylenediaminetetraacetic acid, 10 mM magnesium chloride, 1 mM dithiothreitol, 0.5M guanidine hydrochloride, 30% glycerol). Equimolar quantities of both the solutions were mixed together, and the mixture was used as an AP-1 complex (Fos/Jun peptide). The AP-1 complex was added to avidin-coating 96-well ELISA plate (10 pmol/well), washed, and then blocked with bovine serum albumin. The product was used for binding assay using AP-1 complex.\nOn the basis of the above-mentioned two coated AP-1, a digoxigenin-labeled double stranded oligonucleotide (22-mer) containing an AP-1 binding sequence ([…]) which has been synthesized elsewhere was reacted in the presence and absence of a sample at room temperature for 30-60 minutes in a binding reaction solution [Hepes buffer or 25 mM tris-hydrochloric acid (pH 7.9), 0.5 mM ethylenediaminetetraacetic acid, 0.05% Nonidet P-40, 10% glycerol]. After of the reaction, unbound labeled oligonucleotide washed out with Hepes buffer solution containing 0.05% of Tween-20. Then, an anti-digoxigenin antibody labeled with peroxidase was added, and reacted with the labeled oligonucleotide bound to AP-1. After washing out the excessive antibody with Hepes buffer containing 0.05% of Tween-20, the residue was reacted for a predetermined period of time in a 100 mM citrate buffer (pH 5.0) containing hydrogen peroxide by using o-phenylenediamine as a substrate. After adding-sulfuric acid solution to each well, absorbance (492 nm) was measured. Taking the absorbance in the absence of sample as 100%, inhibition rate of sample was calculated from the absorbance in the presence of sample."}, "[2]": {"system": "type II collagen-induced arthritis", "experiment": "Type II collagen-induced arthritis in mice", "type": "in vivo", "details": "for inhibition at 100 mg/kg: Mus musculus, po, 100 mg/kg orally, 37th day", "description": "Type II Collagen-Induced Arthritis in Mice The effect of the compound of Example 12 on the type II collagen-induced arthritis in mice was examined. As the animals, 8 weeks old male DBA/1J mice (Charles River Japan) were used. To 2 mg/mL solution of bovine type II collagen in 0.1 mol/L acetic acid (Kouken) was added an equivalent quantity of Freund complete adjuvant (Nacalai Tesque), and prepared an emulsion. 0.2 ml of the emulsion was subcutaneously injected into the tail root portion. On the 22nd day as counted from the day of first inoculation, the same treatment as above was repeated to induce arthritis. The compound was suspended in 0.5% methyl cellulose solution and administered orally at 100 mg/kg once every day from the 22nd day to the 36th day. To the control group (negative control group), a 0.5% methyl cellulose solution was administered similarly. Severity of the arthritis was evaluated in the following manner: score 0: no change score 1: swelling on one or two toes or slight swelling in the foreleg root or hindleg root only; score 2: swelling and rubor in more joints; score 3: extensive swelling over whole foreleg or hindleg; and total of the four legs was calculated. Taking the maximum score as 12, the arthritis score was calculated to evaluate the severity of arthritis. Regarding the destruction of joints and bones, X ray photographs of four paws were taken on the 37th day, and severity of destruction in the second to fifth articulationes interphalangeae, first to fifth articulationes metacarpophalangeae and metatarsophalangeae, and calcaneus was scored by 0 or 1 in accordance with presence or absence of destruction, and the severity of destruction in the carpus and tarsal was scored by 0 to 3. Total score for the four paws was taken as joint and bone destruction score, taking 50 points as maximum score."}}, "note": "Where two headings read alike, the source gives them in different places.", "data": [{"molecule": "CC(C)COc1ccc(C(=O)c2ccc(OCC(C)C)c(CCC(=O)O)c2)c(OCC(C)C)c1", "note": "[Example 12, 3-[5-(2,4-diisobutoxybenzoyl)-2-isobutoxyphenyl]propionic acid]", "values": [{"measurement": "inhibition at 200 µM", "setting": "[1]; 200 μM", "value": 24, "unit": "%"}, {"measurement": "inhibition at 500 µM", "setting": "[1]; 500 μM", "value": 90, "unit": "%"}, {"measurement": "arthritis score", "setting": "[2]; DBA/1J mice, 100 mg/kg orally once every day from 22nd to 36th day, 37th day from first inoculation, maximum score 12", "value": 3}, {"measurement": "joint and bone destruction score", "setting": "[2]; DBA/1J mice, 100 mg/kg orally once every day from 22nd to 36th day, X ray on 37th day, maximum score 50", "value": 10}, {"measurement": "inhibition at 100 mg/kg", "setting": "[2]; read-out: inhibition rate as compared with control group (arthritis score)", "value": 63, "unit": "%"}, {"measurement": "inhibition at 100 mg/kg", "setting": "[2]; read-out: inhibition rate as compared with control group (joint and bone destruction score)", "value": 62, "unit": "%"}]}]}
